“And” between values parts separate entries of the source, which are not always exact repeats. Equal values may be shown once. Toxic doses and inconclusive results are not listed. No stated cut-off is given here; in the data, active means T/C of 150% or more; inactive means T/C below 125%.
Tested on: L1210 leukemia ip in BDF1 mice, survival T/C
Experiment: NCI In Vivo Anticancer Drug Screen. Data for tumor model L1210 Leukemia (intraperitoneal) in B6D2F1 (BDF1) mice
Conditions: endpoint: mean survival time, higher = longer survival
In short: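 Value reflects the ratio of survival in compound-treated mice to survival in vehicle-treated controls, with both groups carrying the same transplanted tumor.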

[1] = dose: 100.0 mg/kg/injection, schedule: Q01DX001 (ip), vehicle: saline
[2] = dose: 100.0 mg/kg/injection, schedule: Q01DX009 (ip), vehicle: saline
[3] = dose: 200.0 mg/kg/injection, schedule: Q01DX001 (ip), vehicle: saline
[4] = dose: 200.0 mg/kg/injection, schedule: Q01DX009 (ip), vehicle: saline
[5] = dose: 400.0 mg/kg/injection, schedule: Q01DX001 (ip), vehicle: saline
[6] = dose: 25.0 mg/kg/injection, schedule: Q04DX003 (ip), vehicle: saline
[7] = dose: 100.0 mg/kg/injection, schedule: Q04DX003 (ip), vehicle: saline
[8] = dose: 50.0 mg/kg/injection, schedule: Q01DX009 (ip), vehicle: Klucel (hydroxypropylcellulose) (HPC)
[9] = dose: 100.0 mg/kg/injection, schedule: Q01DX009 (ip), vehicle: Klucel (hydroxypropylcellulose) (HPC)
[10] = dose: 200.0 mg/kg/injection, schedule: Q01DX009 (ip), vehicle: Klucel (hydroxypropylcellulose) (HPC)

Measured: T/C

CC(=O)OCC1OC(N2C(=O)NC(=O)C3C4OC(=O)OC4C32)C(OC(C)=O)C1OC(C)=O (stereo not drawn)
inactive: dose: 25.0 mg/kg/injection, schedule: Q01DX005 (ip), vehicle: other 108 % of control | dose: 50.0 mg/kg/injection, schedule: Q01DX005 (ip), vehicle: other 100 % of control | dose: 100.0 mg/kg/injection, schedule: Q01DX005 (ip), vehicle: other 106 % of control | dose: 200.0 mg/kg/injection, schedule: Q01DX005 (ip), vehicle: other 106 % of control | dose: 400.0 mg/kg/injection, schedule: Q01DX005 (ip), vehicle: other 108 % of control

CCOC(=O)CCC(N)C(=O)OCC (stereo not drawn)
inactive: [1] 95 % of control and 91 % of control | [2] 96 % of control | [3] 91 % of control | [4] 88 % of control | [5] 98 % of control and 86 % of control

N#CC1C2CCC(C2)C1CCCN (stereo not drawn)
inactive: dose: 25.0 mg/kg/injection, schedule: Q01DX009 (ip), vehicle: saline 108 % of control | [6] 102 % of control | dose: 50.0 mg/kg/injection, schedule: Q01DX009 (ip), vehicle: saline 106 % of control | dose: 50.0 mg/kg/injection, schedule: Q04DX003 (ip), vehicle: saline 95 % of control | [2] 98 % of control | [7] 95 % of control and 115 % of control

CCc1ccc2c(c1)N(CC(C)CN(C)C)c1ccccc1S2 (stereo not drawn)
inactive: dose: 1.56 mg/kg/injection, schedule: Q01DX009 (ip), vehicle: saline 115 % of control | dose: 3.12 mg/kg/injection, schedule: Q01DX009 (ip), vehicle: saline 109 % of control | dose: 6.25 mg/kg/injection, schedule: Q01DX009 (ip), vehicle: saline 106 % of control | dose: 12.5 mg/kg/injection, schedule: Q01DX009 (ip), vehicle: saline 102 % of control | dose: 12.5 mg/kg/injection, schedule: Q04DX003 (ip), vehicle: saline 113 % of control | [6] 115 % of control

O=P(O)(O)OCC1OC(n2cnc3c(Cl)ncnc32)C(O)C1O (stereo not drawn)
inactive: dose: 50.0 mg/kg/injection, schedule: Q04DX002 (ip), vehicle: saline 115 % of control | dose: 100.0 mg/kg/injection, schedule: Q04DX002 (ip), vehicle: saline 100 % of control | dose: 200.0 mg/kg/injection, schedule: Q04DX002 (ip), vehicle: saline 123 % of control

CC(=O)Nc1cc([As](=O)(O)O)ccc1O
inactive: [8] 105 % of control | [9] 102 % of control | [10] 97 % of control

CC/C=C/C1(C(C)C)C(=O)NC(=O)NC1=O (tested in a mixture with another compound)
inactive: dose: 75.0 mg/kg/injection, schedule: Q01DX001 (ip), vehicle: saline 100 % of control | dose: 150.0 mg/kg/injection, schedule: Q01DX001 (ip), vehicle: saline 94 % of control | dose: 300.0 mg/kg/injection, schedule: Q01DX001 (ip), vehicle: saline 94 % of control

COC1OC(COS(=O)(=O)c2ccc(C)cc2)C(OS(=O)(=O)c2ccc(C)cc2)C(OS(=O)(=O)c2ccc(C)cc2)C1OS(=O)(=O)c1ccc(C)cc1 (stereo not drawn)
inactive: dose: 100.0 mg/kg/injection, schedule: Q04DX003 (ip), vehicle: saline with Tween-80 91 % of control | dose: 200.0 mg/kg/injection, schedule: Q04DX003 (ip), vehicle: saline with Tween-80 91 % of control | dose: 400.0 mg/kg/injection, schedule: Q04DX003 (ip), vehicle: saline with Tween-80 90 % of control

COc1cc(C(O)C(Cl)(Cl)Cl)ccc1O (stereo not drawn)
inactive: dose: 100.0 mg/kg/injection, schedule: Q04DX003 (ip), vehicle: other 105 % of control | dose: 200.0 mg/kg/injection, schedule: Q04DX003 (ip), vehicle: other 105 % of control | dose: 400.0 mg/kg/injection, schedule: Q04DX003 (ip), vehicle: other 102 % of control

Cc1ccc(NC(=S)NCCc2ccccn2)cc1C
inactive: [9] 96 % of control | [10] 99 % of control | dose: 400.0 mg/kg/injection, schedule: Q01DX009 (ip), vehicle: Klucel (hydroxypropylcellulose) (HPC) 91 % of control

S=C(c1cccs1)N1CCN(c2ccccc2)CC1
inactive: [1] 97 % of control | [3] 95 % of control | [5] 97 % of control

CCCSc1ccccc1N1CCNCC1
inactive: dose: 50.0 mg/kg/injection, schedule: Q01DX001 (ip), vehicle: saline 103 % of control | [1] 101 % of control | [3] 101 % of control | [5] 103 % of control

O=C(Cn1cc(F)c(=O)[nH]c1=O)c1ccco1
inactive: [2] 90 % of control | [7] 96 % of control | [4] 91 % of control | dose: 200.0 mg/kg/injection, schedule: Q04DX003 (ip), vehicle: saline 93 % of control | dose: 400.0 mg/kg/injection, schedule: Q01DX009 (ip), vehicle: saline 88 % of control | dose: 400.0 mg/kg/injection, schedule: Q04DX003 (ip), vehicle: saline 88 % of control

O=[N+]([O-])c1cc(Br)cc2c1nc(Cl)c1ccccc12
inactive: dose: 100.0 mg/kg/injection, schedule: Q04DX003 (ip), vehicle: Klucel (hydroxypropylcellulose) (HPC) 98 % of control | dose: 200.0 mg/kg/injection, schedule: Q04DX003 (ip), vehicle: Klucel (hydroxypropylcellulose) (HPC) 101 % of control | dose: 400.0 mg/kg/injection, schedule: Q04DX003 (ip), vehicle: Klucel (hydroxypropylcellulose) (HPC) 98 % of control

CCCNP(=S)(NCCC)NCCC
inactive: dose: 50.0 mg/kg/injection, schedule: Q01DX001 (ip), vehicle: other 96 % of control | dose: 100.0 mg/kg/injection, schedule: Q01DX001 (ip), vehicle: other 100 % of control | dose: 200.0 mg/kg/injection, schedule: Q01DX001 (ip), vehicle: other 105 % of control | dose: 400.0 mg/kg/injection, schedule: Q01DX001 (ip), vehicle: other 100 % of control

COC(=O)NC1CC(CO)CC1O (stereo not drawn)
inactive: [8] 91 % of control | [9] 89 % of control | [10] 91 % of control

CC(C)N(C(=S)[S-])C(C)C.CC(C)N(C(=S)[S-])C(C)C.[Zn]
inactive: dose: 37.5 mg/kg/injection, schedule: Q01DX009 (ip), vehicle: saline 89 % of control | dose: 75.0 mg/kg/injection, schedule: Q01DX001 (ip), vehicle: acetone 97 % of control | dose: 75.0 mg/kg/injection, schedule: Q01DX009 (ip), vehicle: saline 90 % of control | dose: 75.0 mg/kg/injection, schedule: Q04DX003 (ip), vehicle: saline 101 % of control | dose: 150.0 mg/kg/injection, schedule: Q01DX001 (ip), vehicle: acetone 92 % of control | dose: 150.0 mg/kg/injection, schedule: Q01DX009 (ip), vehicle: saline 86 % of control | dose: 150.0 mg/kg/injection, schedule: Q04DX003 (ip), vehicle: saline 90 % of control | dose: 300.0 mg/kg/injection, schedule: Q01DX001 (ip), vehicle: acetone 93 % of control | dose: 300.0 mg/kg/injection, schedule: Q04DX003 (ip), vehicle: saline 86 % of control

O=C(Nc1ncc([N+](=O)[O-])s1)c1cccc([N+](=O)[O-])c1
inactive: dose: 6.25 mg/kg/injection, schedule: Q01DX009 (ip), vehicle: Klucel (hydroxypropylcellulose) (HPC) 92 % of control | dose: 6.25 mg/kg/injection, schedule: Q04DX003 (ip), vehicle: Klucel (hydroxypropylcellulose) (HPC) 105 % of control | dose: 12.5 mg/kg/injection, schedule: Q01DX009 (ip), vehicle: Klucel (hydroxypropylcellulose) (HPC) 100 % of control | dose: 12.5 mg/kg/injection, schedule: Q04DX003 (ip), vehicle: Klucel (hydroxypropylcellulose) (HPC) 102 % of control | dose: 25.0 mg/kg/injection, schedule: Q01DX009 (ip), vehicle: Klucel (hydroxypropylcellulose) (HPC) 89 % of control | dose: 25.0 mg/kg/injection, schedule: Q04DX003 (ip), vehicle: Klucel (hydroxypropylcellulose) (HPC) 102 % of control

CNc1ccc(/C=C2\C=Cc3ccccc32)cc1Cl
inactive: dose: 100.0 mg/kg/injection, schedule: Q01DX001 (ip), vehicle: carboxymethylcellulose (CMC) 97 % of control | dose: 400.0 mg/kg/injection, schedule: Q01DX001 (ip), vehicle: carboxymethylcellulose (CMC) 92 % of control

CC(C)(S)C(N)C(N)=O (stereo not drawn)
inactive: dose: 100.0 mg/kg/injection, schedule: Q04DX002 (ip), vehicle: Klucel (hydroxypropylcellulose) (HPC) 103 % of control | dose: 200.0 mg/kg/injection, schedule: Q04DX002 (ip), vehicle: Klucel (hydroxypropylcellulose) (HPC) 97 % of control | dose: 400.0 mg/kg/injection, schedule: Q04DX002 (ip), vehicle: Klucel (hydroxypropylcellulose) (HPC) 97 % of control

— PubChem BioAssay AID248 (DTP/NCI, 2004)
